Consider 2 compounds from patent US7705016B2, “Regulation of food intake by modulation of long-chain fatty acyl-CoA levels in the hypothalamus” (Albert Einstein College of Medicine of Yeshiva University, priority 2003, dated 2010).

The subject of one data set is CPT1M mRNA. Nature of the data set: CPT1M mRNA in hypothalamic nuclei micro punches by real-time PCR after ICV injection. As to conditions: 3 days after ICV injection. It is filed as in vivo, rat. On the procedure:
Surgical implantation of ICV cannulae was performed on day 1 (˜3 weeks prior to the in vivo study). Full recovery of body weight and food intake was achieved by day 7. Rats randomized for ribozyme treatment received an ICV injection of CPT1L-Ribo, CPT inhibitors or controls on day 17. The experimental group treated with TDGA received ICV injection of the inhibitor on day 21, 6 hr prior to the harvesting of brains. Panels B. and C. show quantitation of CPT1L (B) and CPT1M (C) mRNA by real-time PCR. RNA was purified from individual hypothalamic nuclei (PVN, LHA, and arcuate), which were obtained by micro punch technique 3 days after ICV injection of pTarget control (▪; N=4) or CPT1LRibo (□; N=5). […] CPT1 activity was measured in the particulate fraction of protein extracts from animals treated with ICV control injections (▪; N=6, receiving aCSF+2% DMSO or Control Ribo), TDGA ( ?; N=6), or CPTL-Ribo (□; N=5). […] Levels of stearoyl-CoA (F) and oleyl-CoA (E) respectively were measured by HPLC in arcuate of rats injected ICV with control compound (▪; ST1340) or ST1326 (□).
ICV catheters were implanted in male Sprague-Dawley rats by stereotaxic surgery (Obici et al., 2002a; Obici et al., 2001; Liu et al., 1998). […] Thus, we next measured CPT1 activity in ARC and in whole hypothalamus. […]
Quantitation of CPT1 and neuropeptides mRNA by Northern and real-time PCR. […]

For another data set, the system named is PEPCK mRNA. As to the kind of experiment: Hepatic PEPCK mRNA after ICV OA (northern blot). As to conditions: either group (HF55, HF140). It is filed as in vivo, rat. The method, then: Northern Blot Analysis. Total RNA was isolated from hypothalami and liver with Trizol (Invitrogen Corp., California, USA). NPY, Glc-6-Pase or PEPCK expression was measured by northern blot analysis. Hypothalamic RNA was analyzed using probes for prepro-NPY and β-actin. To assess the effect of ICV OA on the expression of hepatic enzymes, total RNA was isolated from freeze-clamped liver tissues from rats subjected to insulin clamp studies. Glc-6-Pase and PEPCK cDNA were obtained as previously described (Combs et al., 2001; Massillon et al., 1996; 1998). Probes were labeled with [α-^32P] dCTP using a random primer kit (Stratagene). Quantification was performed by scanning densitometry, normalizing for β-actin signal and 18S ribosomal RNA to correct for loading variabilities. Effect of ICV OA on the hepatic expression of Glc-6-Pase and PEPCK. The potent effects of the central administration of OA on hepatic glucose fluxes prompted us to examine whether changes in the liver mRNA levels of key metabolic enzymes can partly account for these effects. Thus, we next measured the liver abundance of Glc-6-Pase and PEPCK mRNA as a function of 18S ribosomal RNA (FIG. 9d) or β-actin mRNA (not shown) in tissue samples obtained after ICV infusion of either OA or vehicle in caloric restricted and over-fed rats. […]

As for “CPT1L-Ribo: plasmid (pTarget, CMV promoter) expressing a hammerhead ribozyme that specifically cleaves rat CPT1L mRNA, complexed to PEI for ICV injection (DNA CUGUACCAAAGAGCUGUAGAGUCCGUGAGGACGAAACGCCGCUCACAAUG)”, the “CPT1M mRNA expression in hypothalamic nuclei” value in the data set with CPT1M mRNA is given as “not appreciably altered”.

With `CCCCCCCC/C=C\CCCCCCCC(=O)O` [OA, oleic acid], in the data set with PEPCK mRNA, the “liver expression of PEPCK” value is “failed to significantly alter”.
